For orientation: IC50 means the point on the concentration scale where inhibition reaches its midpoint.

Here are results for 31 compounds from patent US8569298B2, “Pyridine compounds” (Astrazeneca AB, priority 2008, dated 2013).

SMILES strings stand for the structures.

The assay has as its target T1, FAK enzyme (6 His tagged kinase domain, GenBank NP—722560) (Homo sapiens, UniProt Q05397).
T1 construct: 6 His; made in house; host or cells: insect cell culture infected with baculovirus
Nature of the assay: In vitro enzyme assay (a): sandwich ELISA of FAK tyrosine kinase activity on polyGAT peptide, TMB colorimetric endpoint. The class given is biochemical. The settings on record: in vitro Enzyme Assay test (a); ATP at Km; geometric mean of n > 1 measurements, values marked * tested once. The method, boiled down:
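Recombinant His-tagged FAK kinase domain (baculovirus/insect cells) phosphorylated plate-coated polyGAT with ATP at Km, MgCl2/MnCl2, HEPES pH 7.4, 25 min at room temperature before EDTA stop. Phosphotyrosine detected by HRP-4G10 antibody and TMB absorbance at 450 nm; IC50 from 12-point curve anchored to DMSO and staurosporine controls.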

T1 sequence (Q05397 422-680 limits assumed): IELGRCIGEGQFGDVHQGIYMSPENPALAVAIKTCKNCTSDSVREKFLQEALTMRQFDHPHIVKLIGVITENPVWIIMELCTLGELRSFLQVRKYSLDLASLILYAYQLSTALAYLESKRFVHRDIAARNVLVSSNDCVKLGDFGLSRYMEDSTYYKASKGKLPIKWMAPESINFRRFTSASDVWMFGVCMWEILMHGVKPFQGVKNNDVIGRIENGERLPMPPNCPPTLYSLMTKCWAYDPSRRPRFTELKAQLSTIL

`CNC(=O)c1ccccc1Nc1cc(Nc2cnn(C3CCN(C)CC3)c2)ncc1F` [Example 4.11, 2-[[5-fluoro-2-[[1-(1-methyl-4-piperidyl)pyrazol-4-yl]amino]-4-pyridyl]amino]-N-methyl-benzamide]: inhibition was half-maximal at 2080 nM (IC50).
In the case of `Cc1nn(C)cc1Nc1cc(Nc2cccc3c2C(=O)N(C)CC3)c(F)cn1` [Example 4.12, 8-[[2-[(1,3-Dimethylpyrazol-4-yl)amino]-5-fluoro-4-pyridyl]amino]-2-methyl-3,4-dihydroisoquinolin-1-one], the IC50 was 121 nM.
`CN1CCc2cccc(Nc3cc(Nc4cnn([C@@H]5CCC(=O)NC5)c4)ncc3F)c2C1=O` [Example 4.13, 8-[[5-fluoro-2-[[1-[(3R)-6-oxopiperidin-3-yl]pyrazol-4-yl]amino]pyridin-4-yl]amino]-2-methyl-3,4-dihydroisoquinolin-1-one] gave an IC50 of 1030 nM. This IC50 is about 8.5-fold higher than that of the compound before.
The compound `CN1CCc2cccc(Nc3cc(Nc4cnn(C)c4)ncc3F)c2C1=O` [Example 4.14, 8-[[5-fluoro-2-[(1-methylpyrazol-4-yl)amino]-4-pyridyl]amino]-2-methyl-3,4-dihydroisoquinolin-1-one] returned a half-inhibitory concentration (IC50) of 408 nM.
Compound `CN1CCc2cccc(Nc3cc(Nc4cnn(C5CCOCC5)c4)ncc3F)c2C1=O` [Example 4.15, 8-[[5-fluoro-2-[(1-tetrahydropyran-4-ylpyrazol-4-yl)amino]-4-pyridyl]amino]-2-methyl-3,4-dihydroisoquinolin-1-one] showed an IC50 of 454 nM.
Compound `CN1CCC(n2cc(Nc3cc(Nc4cccc5c4C(=O)N(C)CC5)c(F)cn3)cn2)CC1` [Example 4.16, 8[[5-fluoro-2-[[1-(1-methyl-4-piperidyl)pyrazol-4-yl]amino]-4-pyridyl]amino]-2-methyl-3,4-dihydroisoquinolin-1-one] gave an IC50 of 465 nM. This IC50 and that of the compound before are within 1.5-fold of each other.
`CN1CCc2cccc(Nc3cc(Nc4cnn(C5CCNCC5)c4)ncc3F)c2C1=O` [Example 4.17, 8-[[5-Fluoro-2-[[1-(4-piperidyl)pyrazol-4-yl]amino]-4-pyridyl]amino]-2-methyl-3,4-dihydroisoquinolin-1-one] returned a concentration for half-maximal inhibition (IC50) of 189 nM.
Take `CN1CCc2cccc(Nc3cc(Nc4cnn(C5CCCNC5)c4)ncc3F)c2C1=O` (stereo not shown) [Example 4.18, 8-[[5-fluoro-2-[[1-(3-piperidyl)pyrazol-4-yl]amino]-4-pyridyl]amino]-2-methyl-3,4-dihydroisoquinolin-1-one]: half-maximal inhibition (IC50) was put at 676 nM.
The value for `CN1CCc2cccc(Nc3cc(Nc4ccn(C5CCNCC5)n4)ncc3F)c2C1=O` [Example 4.19, 8-[[5-fluoro-2-[[1-(4-piperidyl)pyrazol-3-yl]amino]-4-pyridyl]amino]-2-methyl-3,4-dihydroisoquinolin-1-one] was 83 nM; that for `CN1CCc2cccc(Nc3cc(Nc4cnn(CC(=O)N5CCCC5)c4)ncc3F)c2C1=O` [Example 4.20, 8-[[5-Fluoro-2-[[1-(2-oxo-2-pyrrolidin-1-yl-ethyl)pyrazol-4-yl]amino]-4-pyridyl]amino]-2-methyl-3,4-dihydroisoquinolin-1-one] was 304 nM.
Regarding `CN(C)CCCNC(=O)Cn1cc(Nc2cc(Nc3cccc4c3C(=O)N(C)CC4)c(F)cn2)cn1` [Example 4.21, N-(3-dimethylaminopropyl)-2-[4-[[5-fluoro-4-[(2-methyl-1-oxo-3,4-dihydroisoquinolin-8-yl)amino]-2-pyridyl]amino]pyrazol-1-yl]acetamide], 188 nM corresponded to half-maximal inhibition (IC50).
As to `CN(C)CCNC(=O)Cn1cc(Nc2cc(Nc3cccc4c3C(=O)N(C)CC4)c(F)cn2)cn1` [Example 4.22, N-(2-dimethylaminoethyl)-2-[4-[[5-fluoro-4-[(2-methyl-1-oxo-3,4-dihydroisoquinolin-8-yl)amino]-2-pyridyl]amino]pyrazol-1-yl]acetamide], the half-maximal inhibitory concentration (IC50) turned out to be 364 nM. Compared with the last compound, the IC50 is about 1.9-fold higher.
The compound `COCCNC(=O)Cn1cc(Nc2cc(Nc3cccc4c3C(=O)N(C)CC4)c(F)cn2)cn1` [Example 4.23, 2-[4-[[5-fluoro-4-[(2-methyl-1-oxo-3,4-dihydroisoquinolin-8-yl)amino]-2-pyridyl]amino]pyrazol-1-yl]-N-(2-methoxyethyl)acetamide] yielded a half-maximal inhibitory concentration (IC50) of 449 nM. The IC50 values of the last two compounds are within 1.5-fold of each other.
As to `COCCN(C)C(=O)Cn1cc(Nc2cc(Nc3cccc4c3C(=O)N(C)CC4)c(F)cn2)cn1` [Example 4.24, 2-[4-[[5-fluoro-4-[(2-methyl-1-oxo-3,4-dihydroisoquinolin-8-yl)amino]-2-pyridyl]amino]pyrazol-1-yl]-N-(2-methoxyethyl)-N-methyl-acetamide], the IC50 was determined as 294 nM.
The compound `CN1CCc2cccc(Nc3cc(Nc4cnn(CC(=O)N5CCOCC5)c4)ncc3F)c2C1=O` [Example 4.25, 8-[[5-fluoro-2-[[1-(2-morpholino-2-oxo-ethyl)pyrazol-4-yl]amino]-4-pyridyl]amino]-2-methyl-3,4-dihydroisoquinolin-1-one] gave a half-inhibitory concentration (IC50) of 204 nM.
The value for `CN1CCN(C(=O)Cn2cc(Nc3cc(Nc4cccc5c4C(=O)N(C)CC5)c(F)cn3)cn2)CC1` [Example 4.26, 8-[[5-fluoro-2-[[1-[2-(4-methylpiperazin-1-yl)-2-oxo-ethyl]pyrazol-4-yl]amino]-4-pyridyl]amino]-2-methyl-3,4-dihydroisoquinolin-1-one] was 199 nM.
`CNC1CCN(C(=O)Cn2cc(Nc3cc(Nc4cccc5c4C(=O)N(C)CC5)c(F)cn3)cn2)C1` (stereo not shown) [Example 4.27, 8-[[5-Fluoro-2-[[1-[2-(3-methylaminopyrrolidin-1-yl)-2-oxo-ethyl]pyrazol-4-yl]amino]-4-pyridyl]amino]-2-methyl-3,4-dihydroisoquinolin-1-one] showed an IC50 of 72 nM.
In turn, `Cc1nn(C)cc1Nc1cc(Nc2ccc(N3CCN(C(C)C)CC3)c3c2C(=O)N(C)C3)c(F)cn1` [Example 4.28, 7-[[2-[(1,3-Dimethylpyrazol-4-yl)amino]-5-fluoro-4-pyridyl]amino]-4-(4-isopropylpiperazin-1-yl)-2-methyl-isoindolin-1-one] displayed an IC50 of 1120 nM.
In turn, `CN1CCN(c2[nH]nc(Nc3cc(Nc4cccc5c4C(=O)N(C)CC5)c(F)cn3)c2C#N)CC1` [Example 4.29, 3-[[5-Fluoro-4-[(2-methyl-1-oxo-3,4-dihydroisoquinolin-8-yl)amino]-2-pyridyl]amino]-5-(4-methylpiperazin-1-yl)-1H-pyrazole-4-carbonitrile] showed an IC50 of 22700 nM.
For the compound `Cc1nn(C)cc1Nc1cc(Nc2cccc3c2C(=O)N(C)CC3)c(C(F)(F)F)cn1` [Example 5.01, 8-[[2-[(1,3-dimethylpyrazol-4-yl)amino]-5-(trifluoromethyl)-4-pyridyl]amino]-2-methyl-3,4-dihydroisoquinolin-1-one], 6 nM corresponded to half-maximal inhibition (IC50).
`CNC(=O)c1c(Nc2cc(Nc3cn(C)nc3C)ncc2C(F)(F)F)cccc1OC` [Example 5.02, 2-[[2-[(1,3-dimethylpyrazol-4-yl)amino]-5-(trifluoromethyl)-4-pyridyl]amino]-6-methoxy-N-methyl-benzamide] yielded a 50% inhibitory concentration (IC50) of 9 nM.
The compound `Cc1nn(C)cc1Nc1cc(Nc2cccc3c2C(=O)N(C)CCO3)c(C(F)(F)F)cn1` [Example 5.03, 6-[[2-[(1,3-dimethylpyrazol-4-yl)amino]-5-(trifluoromethyl)-4-pyridyl]amino]-4-methyl-2,3-dihydro-1,4-benzoxazepin-5-one] registered an IC50 of 6 nM.
`CN1CCc2cccc(Nc3cc(Nc4ccnn4C)ncc3Cl)c2C1=O` [Example 6.01, 8-[[5-chloro-2-[(2-methylpyrazol-3-yl)amino]-4-pyridyl]amino]-2-methyl-3,4-dihydroisoquinolin-1-one] returned a half-inhibitory concentration (IC50) of 6 nM.
In turn, `Cc1cc(Nc2cc(Nc3cccc4c3C(=O)N(C)CC4)c(Cl)cn2)n(C)n1` [Example 6.02, 8-[[5-chloro-2-[(2,5-dimethylpyrazol-3-yl)amino]-4-pyridyl]amino]-2-methyl-3,4-dihydroisoquinolin-1-one] returned an IC50 of 7 nM.
Consider `Cc1c(Nc2cc(Nc3cccc4c3C(=O)N(C)CC4)c(Cl)cn2)cnn1C` [Example 6.03, 8-[[5-chloro-2-[(1,5-dimethylpyrazol-4-yl)amino]-4-pyridyl]amino]-2-methyl-3,4-dihydroisoquinolin-1-one], for which inhibition was half-maximal at 5 nM (IC50). This IC50 and that of the compound before are within 1.5-fold of each other.
On to `CCn1cc(Nc2cc(Nc3cccc4c3C(=O)N(C)CC4)c(Cl)cn2)c(C)n1` [Example 6.04, 8-[[5-chloro-2-[(1-ethyl-3-methyl-pyrazol-4-yl)amino]-4-pyridyl]amino]-2-methyl-3,4-dihydroisoquinolin-1-one], for which inhibition was half-maximal at 6 nM (IC50).
`CN1CCc2cccc(Nc3cc(Nc4cc(C5CC5)nn4C)ncc3Cl)c2C1=O` [Example 6.05, 8-[[5-chloro-2-[(5-cyclopropyl-2-methyl-pyrazol-3-yl)amino]-4-pyridyl]amino]-2-methyl-3,4-dihydroisoquinolin-1-one] registered a half-maximal inhibitory concentration (IC50) of 10 nM. This IC50 is about 1.7-fold higher than that of the compound before.
Regarding `CCn1nccc1Nc1cc(Nc2cccc3c2C(=O)N(C)CC3)c(Cl)cn1` [Example 6.06, 8-[[5-chloro-2-[(2-ethylpyrazol-3-yl)amino]-4-pyridyl]amino]-2-methyl-3,4-dihydroisoquinolin-1-one], the 50% inhibitory concentration (IC50) was 4 nM.
As to `CN1CCc2cccc(Nc3cc(Nc4ccn(C)n4)ncc3Cl)c2C1=O` [Example 6.07, 8-[[5-chloro-2-[(1-methylpyrazol-3-yl)amino]-4-pyridyl]amino]-2-methyl-3,4-dihydroisoquinolin-1-one], the IC50 is 9 nM.
`CCc1nn(C(C)(C)C)c(Nc2cc(Nc3cccc4c3C(=O)N(C)CC4)c(Cl)cn2)c1C` [Example 6.08, 8-[[2-[(2-tert-butyl-5-ethyl-4-methyl-pyrazol-3-yl)amino]-5-chloro-4-pyridyl]amino]-2-methyl-3,4-dihydroisoquinolin-1-one] had an IC50 of 5620 nM.
As to `CC(C)Cn1cc(Nc2cc(Nc3cccc4c3C(=O)N(C)CC4)c(Cl)cn2)cn1` [Example 6.09, 8-[[5-chloro-2-[(1-isobutylpyrazol-4-yl)amino]-4-pyridyl]amino]-2-methyl-3,4-dihydroisoquinolin-1-one], the IC50 was 71 nM.
